Test results: patent publication US20230021483A1, “[…] […] METHOD AND CLASSIFICATION OF PHARMACEUTICAL COMPONENTS BY USING TRANSCRIPTOMES” (National Institutes of Biomedical Innovation, Health and …, priority 2016, published 2023)

Test system: adjuvant-associated biological themes in LV, SP, LN
Details: LV, ID
Excerpt: A defined sets of genes were selected according to specified criteria (e.g., FC, PA-call, threshold values). Their functional enrichment values were then obtained from TargetMine (Chen, Y. A., Tripathi, L. P. & Mizuguchi, K. PloS one 6, e17844 (2011)) (http://targetmine.mizuguchilab.org/) using the API interface. The following resources were used throughout the analysis via TargetMine Interface (GO, GOSlim, Integrated Pathway, KEGG, Reactome, and the NCI pathway). The Holm-Bonferroni method was used for multiple testing corrections.
Whole organ transcriptome data for each organ from each mouse were analyzed as follows to obtain biological themes for individual samples from each adjuvant-administered group of three mice. […] A set of Pj genes was first defined, where eij/ei(c)>2.0. Biological themes enriched within Pj were then identified using TargetMine (Chen, Y. A. et al., PloS one 6, e17844 (2011)) (http://targetmine.mizuguchilab.org/). Tj denote the resulting list of biological themes, with associated p-values from Fischer's exact test.
Next, the biological themes called by all the individual samples in the group were scored as follows. Having obtained three lists (T1, T2 and T3) for a given experimental condition, a consensus list T of themes was created as T={(t1, p1), (t2, p2), . . . }, where ti is a biological theme that appears in all of T1, T2 and T3, and pi is the smallest of the associated p-values. Only the themes with the p-value of <0.05 were included in T.
To summarize the biological themes in T further, a list of terms considered to be associated with adjuvant activity in general was separately prepared. AT={at1, at2, . . . }, where ati is a pre-selected adjuvant-associated term (e.g., “stress” or “cytokine”). Finally, an enrichment score S for an adjuvant-associated term ati was defined as: S(ati)=Σ−log(pj), where the name of tj in T includes a term ati as a substring and pj is the associated p-value.
This scoring scheme summarizes the relative enrichment of pre-selected adjuvant-associated terms in genes responding to each adjuvant in each organ.

With `CCOCc1nc2c(N)nc3ccccc3c2n1CC(C)(C)O` [R848, 4-amino-2-(ethoxymethyl)-a,a-dimethyl-1H-imidazo[4,5-c]quinoline-1-ethanol] the “IFN alpha, GO annotation line 1 of 5” value was 10.2, the “IFN alpha, GO annotation line 2 of 5” value was 3.15 and the “IFN alpha: cellular response to interferon-alpha” value was 0. The “IFN alpha: positive regulation of interferon-alpha production” value was 0, the “IFN alpha: regulation of interferon-alpha production” value was 0 and the “IFN beta: cellular response to interferon-beta” value was 17.9. For the same compound, the “IFN beta: interferon-beta production” value was 7.51, the “IFN beta: positive regulation of interferon-beta production” value was 6.66 and the “IFN beta: regulation of interferon-beta production” value was 5.68. The “IFN beta: response to interferon-beta” value was 23.9, the “IFN gamma: cellular response to interferon-gamma” value was 11.2 and the “IFN gamma: interferon-gamma production” value was 0. The “IFN gamma: regulation of interferon-gamma production” value was 0, the “IFN gamma: response to interferon-gamma” value was 15.7 and the “NF-kappa B signaling pathway, GO annotation line 1 of 4” value was 8.86. The “NF-kappa B signaling pathway, GO annotation line 2 of 4” value was 7.93, the “NF-kappa B signaling pathway, GO annotation line 3 of 4” value was 5.3 and the “NF-kappa B signaling pathway, GO annotation line 4 of 4” value was 5.28. For the same compound, the TNF signaling pathway was 16.1, the “adaptive immune response, GO annotation line 1 of 5” value was 4.42 and the “adaptive immune response, GO annotation line 2 of 5” value was 6.23. The “adaptive immune response, GO annotation line 3 of 5” value was 4.06, the “adaptive immune response, GO annotation line 4 of 5” value was 0 and the “adaptive immune response, GO annotation line 5 of 5” value was 0. For the same compound, the “apoptosis, GO annotation line 1 of 8” value was 18.6, the “apoptosis, GO annotation line 2 of 8” value was 15.5 and the “apoptosis, GO annotation line 3 of 8” value was 10.6. The “apoptosis, GO annotation line 4 of 8” value was 5.18, the “apoptosis, GO annotation line 5 of 8” value was 4.1 and the “apoptosis, GO annotation line 6 of 8” value was 5.48. The “apoptosis, GO annotation line 7 of 8” value was 0, the “apoptosis, GO annotation line 8 of 8” value was 0 and the “cell death, GO annotation line 1 of 9” value was 23.1. The “cell death, GO annotation line 2 of 9” value was 18.3, the “cell death, GO annotation line 3 of 9” value was 19.4 and the “cell death, GO annotation line 4 of 9” value was 15.5. For the same compound, the “cell death, GO annotation line 5 of 9” value was 15.5, the “cell death, GO annotation line 6 of 9” value was 4.66 and the “cell death, GO annotation line 7 of 9” value was 4.64. For the same compound, the “cell death, GO annotation line 8 of 9” value was 0, the “cell death, GO annotation line 9 of 9” value was 0 and the “chemokine, GO annotation line 1 of 4” value was 3.95. For the same compound, the “chemokine, GO annotation line 2 of 4” value was 0, the “chemokine, GO annotation line 3 of 4” value was 0 and the “chemokine, GO annotation line 4 of 4” value was 0. For the same compound, the “chemotaxis, GO annotation line 1 of 11” value was 11, the “chemotaxis, GO annotation line 2 of 11” value was 0 and the “chemotaxis, GO annotation line 3 of 11” value was 8.03. The “chemotaxis, GO annotation line 4 of 11” value was 3.91, the “chemotaxis, GO annotation line 5 of 11” value was 0 and the “chemotaxis, GO annotation line 6 of 11” value was 4.44. For the same compound, the “chemotaxis, GO annotation line 7 of 11” value was 3.7, the “chemotaxis, GO annotation line 8 of 11” value was 3.31 and the “chemotaxis, GO annotation line 9 of 11” value was 0. For the same compound, the “chemotaxis, GO annotation line 10 of 11” value was 3.62, the “chemotaxis, GO annotation line 11 of 11” value was 0 and the “cytokine, GO annotation line 1 of 17” value was 44.8. The “cytokine, GO annotation line 2 of 17” value was 30.5, the “cytokine, GO annotation line 3 of 17” value was 30.4 and the “cytokine, GO annotation line 4 of 17” value was 11.1. The “cytokine, GO annotation line 5 of 17” value was 30.4, the “cytokine, GO annotation line 6 of 17” value was 26.5 and the “cytokine, GO annotation line 7 of 17” value was 16.5. For the same compound, the “cytokine, GO annotation line 8 of 17” value was 5.44, the “cytokine, GO annotation line 9 of 17” value was 4.8 and the “cytokine, GO annotation line 10 of 17” value was 20.3. For the same compound, the “cytokine, GO annotation line 11 of 17” value was 5.01, the “cytokine, GO annotation line 12 of 17” value was 0 and the “cytokine, GO annotation line 13 of 17” value was 5.55. For the same compound, the “cytokine, GO annotation line 14 of 17” value was 6.84, the “cytokine, GO annotation line 15 of 17” value was 0 and the “cytokine, GO annotation line 16 of 17” value was 0. For the same compound, the “cytokine, GO annotation line 17 of 17” value was 0, the “defense response, GO annotation line 1 of 11” value was 71.2 and the “defense response, GO annotation line 2 of 11” value was 50.3. For the same compound, the “defense response, GO annotation line 3 of 11” value was 33.9, the “defense response, GO annotation line 4 of 11” value was 46.5 and the “defense response, GO annotation line 5 of 11” value was 18.6. For the same compound, the “defense response, GO annotation line 6 of 11” value was 8.29, the “defense response, GO annotation line 7 of 11” value was 5.54 and the “defense response, GO annotation line 8 of 11” value was 20. The “defense response, GO annotation line 9 of 11” value was 6.02, the “defense response, GO annotation line 10 of 11” value was 4.72 and the “defense response, GO annotation line 11 of 11” value was 0. For the same compound, the “immune response, GO annotation line 1 of 8” value was 54.5, the “immune response, GO annotation line 2 of 8” value was 27.8 and the “immune response, GO annotation line 3 of 8” value was 34.2. For the same compound, the “immune response, GO annotation line 4 of 8” value was 14.6, the “immune response, GO annotation line 5 of 8” value was 12.6 and the “immune response, GO annotation line 6 of 8” value was 15.1. The “immune response, GO annotation line 7 of 8” value was 0, the “immune response, GO annotation line 8 of 8” value was 0 and the “inflammatory response, GO annotation line 1 of 5” value was 22.2. For the same compound, the “inflammatory response, GO annotation line 2 of 5” value was 6.29, the “inflammatory response, GO annotation line 3 of 5” value was 0 and the “inflammatory response, GO annotation line 4 of 5” value was 0. The “inflammatory response, GO annotation line 5 of 5” value was 0, the “innate immune response, GO annotation line 1 of 6” value was 49.6 and the “innate immune response, GO annotation line 2 of 6” value was 37.9. For the same compound, the “innate immune response, GO annotation line 3 of 6” value was 22.9, the “innate immune response, GO annotation line 4 of 6” value was 17.9 and the “innate immune response, GO annotation line 5 of 6” value was 13.8. The “innate immune response, GO annotation line 6 of 6” value was 8.91, the “interleukin-6: interleukin-6 production” value was 7.8 and the “interleukin-6: positive regulation of interleukin-6 production” value was 4.53. The “interleukin-6: regulation of interleukin-6 production” value was 6.67, the “interleukin-12: interleukin-12 production” value was 0 and the “interleukin-12: positive regulation of interleukin-12 production” value was 0. For the same compound, the “interleukin-12: regulation of interleukin-12 production” value was 0, the “migration, GO annotation line 1 of 10” value was 8.03 and the “migration, GO annotation line 2 of 10” value was 0. For the same compound, the “migration, GO annotation line 3 of 10” value was 7.89, the “migration, GO annotation line 4 of 10” value was 5.8 and the “migration, GO annotation line 5 of 10” value was 3.14. The “migration, GO annotation line 6 of 10” value was 3.96, the “migration, GO annotation line 7 of 10” value was 3.31 and the “migration, GO annotation line 8 of 10” value was 0. The “migration, GO annotation line 9 of 10” value was 0, the “migration, GO annotation line 10 of 10” value was 0 and the “stress, GO annotation line 1 of 3” value was 63.8. The “stress, GO annotation line 2 of 3” value was 45.6, the “stress, GO annotation line 3 of 3” value was 0 and the “wounding, GO annotation line 1 of 3” value was 11.1. The “wounding, GO annotation line 2 of 3” value was 9.74 and the “wounding, GO annotation line 3 of 3” value was 4.53.
